Data published in ChEMBL document CHEMBL1141342, “Cytotoxic C47-polyacetylene carboxylic acids from a marine sponge Pertrosia sp” (J Nat Prod, 2007).
≈ marks a conversion by molar mass, not a printed value.

Tested on: P388
Test: Cytotoxicity against mouse P388 cells
Type: functional, cell-based

Row | SMILES | IC50 [µg/mL]
1 | C#C[C@@H](O)/C=C/CCCCCCC#C[C@H](O)C#C/C=C/CC/C=C\CCCC/C=C\CCCCCCCCCCCCCC/C=C\C#CC(=O)O [PETROFORMYNIC ACID B] | 0.4 (≈ 0.574 µM)
2 | C#C[C@@H](O)/C=C/CCCCCCC#C[C@H](O)C#C/C=C/CC/C=C\CCCC/C=C\CCCCCCCCCCCCCCCCC#CC(=O)O [PETROFORMYNIC ACID C] | 0.4 (≈ 0.572 µM)
